“Also recorded” adds a separate entry of the source. Like-named read-outs stand apart in the source and are kept apart here. Blank lines part the entries; values can stand above or below the compound they belong to.
Experiments:
[1] = target: brain NOS (cerebellar NOS) (Rattus norvegicus, UniProt P29476); experiment: inhibition of NOS activity, conversion of [^3 H]arginine to [^3 H]citrulline, cerebellar homogenates/supernatants in vitro; settings: for inhibition of brain NOS, in words: guanidinoalkanoic acid series
From the text: (§1) Inhibitors of NOS are compounds which compete for the substrate binding site of NOS or other sites on the enzyme, and include both reversible and irreversible inhibitors. The present invention contemplates the use of any physiologically acceptable inhibitor which inhibits NOS activity. The effectiveness of a compound, and its relative potency as an NOS inhibitor, can be tested and routinely determined by measuring inhibition of NOS activity by monitoring the conversion of arginine to citrulline by NOS in, for example, cerebellar homogenates. A reduction in citrulline formation indicates inhibitory activity of the compound. The percent reduction in citrulline formation, compared to the amount of citrulline formed in the absence of the compound being tested, indicates the potency of the compound as an NOS inhibitor.
Rat cerebella were homogenized in 10 vols. (w/v) […] Tris (pH 7.4), 2 mM EDTA. Homogenates were centrifuged at 10,000×g for 15 minutes at 4° C. Supernatant preparations were used in the enzyme assays. Cerebellar tissue was dialyzed (Spectra/Por, 10,000 MWCO, EDTA-treated cellulose dialysis tubing) against 20 mM Tris (pH 7.4), 2 mM EDTA (300 ml×2) for 24 hours at 4° C.
Cerebellar homogenates were incubated with arginine derivatives for one hour at 4° C., and dialyzed overnight. Aliquots (25 μg protein) were assayed for NOS activity before and after dialysis.
(§2) NOS activity was measured by monitoring the conversion of [^3 H]arginine to [^3 H]citrulline as described by Bredt and Snyder (Proc. Natl. Acad. Sci USA (1990) 87682-685). Briefly, enzyme assays contained 25 μl of soluble tissue, 50 μl of […] [^3 H]arginine and 1 mM NADPH, and 25 μl of 3 mM CaCl2. After a 15 minute incubation at room temperature, the assays were terminated with 3 ml of 20 mM Hepes (pH 5.5) with 2 mM EDTA, and were applied to 0.5 ml columns of Dowex AG50WX8 (Na^+ form). [^3 H]citrulline was quantified by liquid scintillation spectroscopy of the 3 ml flow-through.
(§3) Accordingly, the effects of 2, 4 and 24 hours of preincubations of cerebellar supernatants (FIG. 2A) and activated macrophage homogenates (FIG. 2B) with NO2 Arg were examined. The preincubation was conducted at 4° C. since NOS is unstable at higher temperature for long periods of time. Enzymatic incubation was conducted for only 5 minutes to minimize any reaction of the inhibitor with the enzyme in the course of the incubation procedure.
Cerebellar supernatants were made as described in Example 1.

[2] = tested on: macrophage NOS (activated macrophage homogenates); experiment: inhibition of NOS activity in activated macrophage homogenates in vitro; format: biochemical; settings: guanidinoalkanoic acid series
From the text: as §1, §2, §3
Macrophages were activated as described by Tayeh and Marletta (J. Biol. Chem. (1989) 264:19654-19658) with 3.5 ng/ml LPS from E. coli and 5 units/ml recombinant murine γ-interferon for 24 hours at 37° C. Cells were homogenized in 20 mM Hepes (pH 7.4).

[3] = tested on: brain or macrophage enzyme (NOS); experiment: NOS inhibition and brain/macrophage selectivity of arginine, nitroarginine and guanidinoalkanoic acid analogs; format: biochemical
cortical cell cultures [4] = experiment: cells; format: cell-based, rat; settings: for reversal of NO2 Arg protection from NMDA cytotoxicity: L-Arg 1 mM with 100 μM NO2 Arg, homoarginine, D-Arg, FIG. 7; for EC50: cortical cultures; for effect on NMDA-induced cell death: 300 μM NMDA (with 10 μM glycine), Hb at 500 μM; for effect on SNP-induced cell death: Hb 500 μM
Protocol: Primary dissociated cell cultures were prepared from fetal rats (13-to 14-day gestation for cortex and caudate-putamen cultures and 19- to 20-day gestation for hippocampal cultures). The tissue of interest was dissected, incubated for 15 minutes in 0.027% trypsin in Brooks-Logan solution (5% phosphate-buffered saline/0.04M sucrose/10 mM Hepes/0.03M glucose, pH 7.4), and then transferred to modified Eagle's medium (MEM) 10% horse serum/10% fetal bovine serum/2 mM glutamine for trituration. Dissociated cells were plated at a density of 3-4×10^5 cells per well in polyornithine-coated 15-mm multiwell plates. After 4 days the cells were treated with 10 μg of 5-fluoro-2'-deoxyuridine to prevent proliferations of noneuronal cells. Cells were maintained in MEM/5% horse serum/2 mM glutamine in 8% CO2 /humidified atmosphere at 37° C. The medium was changed twice weekly. Mature neurons (3-4 weeks) were used.
Cells were exposed to excitatory amino acids according to the method of Koh and Choi (J. Neurosci. (1988) 8:2153-2163). Before exposure, the cells were washed three times with Tris-buffered control salt solution (CSS), containing 120 mM NaCl/5.4 mM KCl/1.8 mM CaCl2 /25 mM Tris hydrochloride, pH 7.4 at room temperature/15 mM glucose. Brief exposures to glutamate, NMDA (plus 10 μM glycine), quisqualate, and sodium nitroprusside (SNP) were performed for 5 minutes in CSS. The exposure solution was then washed away and replaced by MEM with 21 mM glucose; then the cells were placed in an incubator for 20-24 hour. Long exposures to kainate were performed in MEM/21 mM glucose for 20-24 hour in the incubator. After exposure to the excitatory amino acids, the medium was replaced by CSS/0.4% trypan blue, which stains nonviable cells. Two to four photographs (10-20×) were made of each well, and viable versus nonviable cells were counted. The cytotoxicity data represent 6-24 separate wells assayed per data point, with ≈500-1500 cells counted per well. Neuronal cell injury was also assessed by measuring the release of lactate dehydrogenase by damaged or destroyed cells into the extracellular fluid following drug exposure.
Before initiating cytotoxicity experiments with NOS inhibitors, the potency of NMDA applied for 5 minutes in inducing cell death was evaluated by examining exclusion of 0.4% trypan blue by viable cells or measuring lactate dehydrogenase released by damaged or destroyed cells into the extracellular fluid.
To examine the role of NO in other forms of glutamate neurotoxicity, the effects of NO2 Arg cytotoxicity induced by quisqualate, kainate, and NMDA were compared. […] Data are means ±SEM (n=6-24). Cell death was determined by 0.4% trypan blue exclusion by viable cells.

NOS = settings: cited from earlier work
cGMP formation = cGMP formation in cortical cell cultures (RIA); format: cell-based, rat; settings: for effect on NMDA stimulation of cGMP formation: 300 μM NMDA (plus 10 μM glycine), 1 minute, 100 μM NO2 Arg, 1 mM L-Arg, 100 units of SOD, 500 μM Hb
Protocol: Primary dissociated cell cultures were prepared from fetal rats (13-to 14-day gestation for cortex and caudate-putamen cultures and 19- to 20-day gestation for hippocampal cultures). […] Dissociated cells were plated at a density of 3-4×10^5 cells per well in polyornithine-coated 15-mm multiwell plates. After 4 days the cells were treated with 10 μg of 5-fluoro-2'-deoxyuridine to prevent proliferations of noneuronal cells. Cells were maintained in MEM/5% horse serum/2 mM glutamine in 8% CO2 /humidified atmosphere at 37° C. The medium was changed twice weekly. Mature neurons (3-4 weeks) were used.
For determination of cGMP the cells were washed three times with CSS. […] After ether extraction, cGMP levels were determined by RIA.
Data are means ±SEM (n=6-8).
Data are means ±SEM (n=8-12).

cortical cell cultures [5] = settings: Koh et al. (1990); cited from earlier work

Chain of brain NOS (cerebellar NOS) (P29476 whole entry): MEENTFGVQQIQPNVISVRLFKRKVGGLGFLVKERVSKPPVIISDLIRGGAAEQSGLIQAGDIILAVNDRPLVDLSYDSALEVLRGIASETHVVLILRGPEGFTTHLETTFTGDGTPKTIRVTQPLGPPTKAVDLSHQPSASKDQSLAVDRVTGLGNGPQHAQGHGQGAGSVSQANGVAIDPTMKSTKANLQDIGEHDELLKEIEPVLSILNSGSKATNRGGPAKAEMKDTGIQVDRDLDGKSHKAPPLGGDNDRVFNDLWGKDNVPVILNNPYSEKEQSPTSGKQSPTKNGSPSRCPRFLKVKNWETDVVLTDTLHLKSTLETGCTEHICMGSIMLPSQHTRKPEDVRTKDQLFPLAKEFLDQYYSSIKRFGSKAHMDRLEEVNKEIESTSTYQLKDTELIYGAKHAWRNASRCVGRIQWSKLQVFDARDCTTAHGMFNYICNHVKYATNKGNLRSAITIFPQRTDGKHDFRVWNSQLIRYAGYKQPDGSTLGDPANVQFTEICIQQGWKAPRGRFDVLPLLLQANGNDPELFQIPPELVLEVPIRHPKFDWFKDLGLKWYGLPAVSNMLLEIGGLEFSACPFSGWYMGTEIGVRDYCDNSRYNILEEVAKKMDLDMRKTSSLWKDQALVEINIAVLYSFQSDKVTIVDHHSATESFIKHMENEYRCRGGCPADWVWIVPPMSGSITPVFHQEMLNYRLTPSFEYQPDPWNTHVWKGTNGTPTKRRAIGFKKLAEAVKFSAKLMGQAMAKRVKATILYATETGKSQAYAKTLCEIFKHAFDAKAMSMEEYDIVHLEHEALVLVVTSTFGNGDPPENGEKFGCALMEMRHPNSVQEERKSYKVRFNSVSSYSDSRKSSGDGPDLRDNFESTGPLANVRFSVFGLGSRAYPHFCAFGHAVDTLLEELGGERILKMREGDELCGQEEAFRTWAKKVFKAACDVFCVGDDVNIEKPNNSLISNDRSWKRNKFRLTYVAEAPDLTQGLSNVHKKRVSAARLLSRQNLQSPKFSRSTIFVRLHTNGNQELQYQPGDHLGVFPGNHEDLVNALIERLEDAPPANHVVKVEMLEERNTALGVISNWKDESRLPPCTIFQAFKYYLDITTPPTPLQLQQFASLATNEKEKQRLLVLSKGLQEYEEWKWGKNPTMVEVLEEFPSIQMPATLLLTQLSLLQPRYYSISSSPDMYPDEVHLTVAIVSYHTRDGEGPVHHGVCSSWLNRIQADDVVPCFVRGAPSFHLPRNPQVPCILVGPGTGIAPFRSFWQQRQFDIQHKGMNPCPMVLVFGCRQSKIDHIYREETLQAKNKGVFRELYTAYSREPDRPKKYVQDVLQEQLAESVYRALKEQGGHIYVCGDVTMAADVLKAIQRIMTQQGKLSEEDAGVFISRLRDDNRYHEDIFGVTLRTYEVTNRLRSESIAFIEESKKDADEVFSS

inhibition of brain NOS, in words [1]: inactive against the brain NOS | inhibition of macrophage enzyme, in words [2]: potent inhibitors
Compound: N=C(N)NCCCCC(=O)O [5-GPA, 5-guanidinopentanoic acid]
selectivity between brain and macrophage enzyme, in words [3]: good selectivity toward the macrophage enzyme

inhibition of brain NOS, in words [1]: inactive against the brain NOS | inhibition of macrophage enzyme, in words [2]: potent inhibitors
Compound: N=C(N)NCCCCCC(=O)O [6-GHA, 6-guanidinohexanoic acid]
selectivity between brain and macrophage enzyme, in words [3]: good selectivity toward the macrophage enzyme

Compound: N=C(N)NCCC[C@@H](N)C(=O)O [D-Arg, D-arginine]
reversal of NO2 Arg protection from NMDA cytotoxicity (cortical cell cultures [4]): much weaker than L-Arg; also recorded: comparable to that obtained with 10 μM L-Arg

Compound: N=C(N)NCCCC[C@H](N)C(=O)O [Homoarginine, homoarginine]
affinity for NOS (NOS; Knowles et al. (1989)): less affinity for NOS than L-Arg | reversal of NO2 Arg protection from NMDA cytotoxicity (cortical cell cultures [4]): reverses effects of NO2 Arg but is less potent than L-Arg

Compound: N=C(N)NCCC[C@H](N)C(=O)O [L-Arg, L-arginine]
effect on NMDA stimulation of cGMP formation (cGMP formation): competitively reversible by L-Arg | reversal of NO2 Arg protection from NMDA cytotoxicity (cortical cell cultures [4]): reverses the inhibition by 100 μM NO2 Arg | reversal of NO2 Arg protection from NMDA cytotoxicity (cortical cell cultures [4]; listed as L-arginine): competitively reversed by L-arginine | reversal of NO2 Arg protection from NMDA cytotoxicity (cortical cell cultures [4]; listed as L-arginine (L-Arg)): completely reverses the effect of NO2 Arg | concentration required to obtain maximal NMDA effects (cortical cell cultures [4]; graded L-Arg added to L-Arg-free medium): 100 µM | protection against quisqualate-induced cell death (cortical cell cultures [4]; quisqualate): reversal by L-Arg

Compound: CNC(=N)NCCC[C@H](N)C(=O)O [MeArg, L-N^ω -monomethylarginine]
relative potency as inhibitor of NOS activity ([1]; cerebellar supernatant preparations, FIG. 1): NO2 Arg is a more potent inhibitor of NOS activity than MeArg | Ki (NOS; Dwyer et al. (1991), read-out: Ki, inhibition of NOS activity of purified enzyme preparations): 2 µM | prevention of neurotoxicity, in words (cortical cell cultures [4]): prevent neurotoxicity in proportion to their relative potencies as NOS inhibitors | EC50 (cortical cell cultures [4]; Rattus norvegicus, NMDA and related excitatory amino acids, read-out: EC50 for preventing neurotoxicity elicited by N-methyl-D-aspartate): 170 µM | EC50 (cortical cell cultures [4]; Rattus norvegicus, NMDA, read-out: concentration giving 50% prevention of NMDA-induced cell death): 170 µM

Compound: CN[C@H](CC(=O)O)C(=O)O [NMDA, N-methyl-D-aspartate]
CC50 (cortical cell cultures [4]; Rattus norvegicus, 5 min, read-out: toxic LD50): 280 µM | cytotoxicity at 300 µM (cortical cell cultures [4]; Rattus norvegicus, 5 min, 300 μM, 5 minutes, read-out: cell death at 300 μM NMDA): 60% | cytotoxicity at 300 µM (cortical cell cultures [4]; Rattus norvegicus, 300 μM NMDA + 10 μM glycine alone, read-out: Cell death, % ± SEM (NMDA)): 57.8 ± 2.6% | CC50 (cortical cell cultures [4]; Rattus norvegicus, arginase-treated preparations / L-Arg-free medium, read-out: 50% lethal concentration): 7500 µM | increase of the 50% lethal concentration of NMDA (cortical cell cultures [4]; arginase-treated preparations / L-Arg-free medium): > 20 fold

Compound: N[C@@H](CCC(=O)O)C(=O)O [glutamate]
Cell death, % ± SEM (glutamate) (cortical cell cultures [4]; 500 μM glutamate alone): 48.4 ± 4.4%

Compound: C=C(C)[C@H]1CN[C@H](C(=O)O)[C@H]1CC(=O)O [kainate]
cytotoxicity at 100 µM (cortical cell cultures [4]; Rattus norvegicus, read-out: Cell death, % ± SEM (kainate)): 81.4 ± 7.1% | neurotoxic action relative to NMDA (cortical cell cultures [5]): act more slowly and less potently than NMDA

Compound: N[C@@H](Cn1oc(=O)[nH]c1=O)C(=O)O [quisqualate]
cytotoxicity at 500 µM (cortical cell cultures [4]; Rattus norvegicus, 500 μM quisqualate alone, read-out: Cell death, % ± SEM (quisqualate)): 64.2 ± 3.7% | neurotoxic action relative to NMDA (cortical cell cultures [5]): act more slowly and less potently than NMDA

Compound: Hb: reduced hemoglobin (Hb), which binds NO
effect on NMDA stimulation of cGMP formation (cGMP formation): antagonized | effect on cGMP levels in cortical cells (SNP) (cGMP formation; SNP, 1-minute exposure): blocked by Hb; also recorded: completely reverses SNP-mediated cytotoxicity and cGMP formation | effect on NMDA-induced cell death (cortical cell cultures [4]): completely prevents NMDA-induced cell death; also recorded: reverses cell death | effect on NMDA-induced cell death (cortical cell cultures [4]; listed as Hemoglobin): prevents neurotoxic effects of both N-methyl-D-aspartate and sodium nitroprusside | effect on SNP-induced cell death (cortical cell cultures [4]): completely prevents SNP-induced cell death; also recorded: completely reverses SNP-mediated cytotoxicity | effect on SNP-induced cell death (cortical cell cultures [4]; listed as Hemoglobin): prevents neurotoxic effects of both N-methyl-D-aspartate and sodium nitroprusside
